Measurements reported in the RepoRT retention time repository (doi:10.1016/j.foodchem.2021.129757).

Experiments:
Conditions in all cases: stereoisomer not certain
[1] = RP, Phenomenex Synergi Hydro-RP, 150 × 2 mm, 4 µm, 30 °C, 0.5 mL/min, estimated dead time 0.6 min; A: water + 0.1% formic acid, pH 3; B: acetonitrile + 0.1% formic acid, pH 3; gradient (min/%B) 0/5 1/5 35/45 40/100 45/100
[2] = RP, Merck LiChrospher RP-18, 250 × 4 mm, 5 µm, 35 °C, 0.3 mL/min, estimated dead time 6.7 min; A: water + 0.5% formic acid; B: acetonitrile + 0.5% formic acid; gradient (min/%B) 0/5 10/5 30/15 45/20 65/20 95/54 110/63 115/5 135/5
[3] = RP, Phenomenex Luna Omega Polar C18, 100 × 2.1 mm, 1.6 µm, 40 °C, 0.5 mL/min, estimated dead time 0.44 min; A: water + 0.5% formic acid; B: acetonitrile + 0.5% formic acid; gradient (min/%B) 0/5 3/50 3.1/100 5/100 5.1/5 7/5
[4] = RP, Waters ACQUITY UPLC HSS T3, 100 × 2.1 mm, 1.8 µm, 30 °C, 0.4 mL/min, estimated dead time 0.55 min; A: water + 0.1% formic acid, pH 3; B: acetonitrile + 0.1% formic acid, pH 3; gradient (min/%B) 0/0 2/0 15/100 22/100 22.1/0 26/0
[5] = RP, Waters ACQUITY UPLC BEH Shield RP18, 100 × 2.1 mm, 1.7 µm, 30 °C, 0.6 mL/min, estimated dead time 0.37 min; A: water + 0.1% formic acid, pH 3; B: acetonitrile + 0.1% formic acid, pH 3; gradient (min/%B) 0/0 2/0 7/10 22/95 22.1/0 26/0
[6] = RP, Waters ACQUITY UPLC HSS T3, 100 × 2.1 mm, 50 °C; A: water + 0.1% formic acid, pH 3; B: 30% methanol + 70% acetonitrile + 0.1% formic acid, pH 3; gradient (min/%B) 0/5 1/8 2/15 3/40 4/70 4.5/100 5/100 6.4/100 6.6/5 6.8/5 7/5
[7] = RP, Waters ACQUITY UPLC BEH Shield RP18, 150 × 2.1 mm, 1.7 µm, 40 °C, 0.4 mL/min, estimated dead time 0.83 min; A: water + 0.1% formic acid, pH 3; B: acetonitrile + 0.1% formic acid, pH 3; gradient (min/%B) 0/0 30/50 31/100 37/100 37.1/0
[8] = RP, Waters Atlantis T3, 100 × 2.1 mm, 3 µm, 40 °C, 0.3 mL/min, estimated dead time 0.73 min; A: water + 0.1% trifluoroacetic acid, pH 2; B: acetonitrile + 0.1% trifluoroacetic acid, pH 2; gradient (min/%B) 0/10 1/10 6/40 7/50 8/50 14/70 16/80 20/10 25/10
[9] = RP, Phenomenex Synergi Hydro-RP, 250 × 2 mm, 4 µm, 25 °C, 0.2 mL/min, estimated dead time 2.5 min; A: water + 0.1% formic acid, pH 3; B: acetonitrile + 0.1% formic acid, pH 3; gradient (min/%B) 0/0.5 7/0.5 12/12.5 25/16.3 47/35 48/65 50/65 50.1/0.5
[10] = RP, 150 × 2.1 mm, 2.6 µm, 40 °C, 0.35 mL/min, estimated dead time 0.94 min; A: water + 0.1% formic acid, pH 3; B: acetonitrile + 0.1% formic acid, pH 3; gradient (min/%B) 0/0 1/0 12.5/100 14/100 14.2/0 15/0
[11] = RP, 150 × 2.1 mm, 2.6 µm, 40 °C, 0.35 mL/min, estimated dead time 0.94 min; A: water + 0.1% formic acid, pH 3; B: acetonitrile + 0.1% formic acid, pH 3; gradient (min/%B) 0/0 1/5 7/45 8.5/80 10.5/80 11/5 12/5
[12] = RP, Waters ACQUITY UPLC BEH C18, 100 × 2.1 mm, 1.7 µm, 65 °C, 0.4 mL/min, estimated dead time 0.55 min; A: water + 0.1% formic acid, pH 3; B: 80% acetonitrile + 20% acetone + 0.1% formic acid, pH 3; gradient (min/%B) 0/0 5/100 5.5/0 6/0
[13] = RP, 50 × 0.5 mm, 2.7 µm, 35 °C, 0.01 mL/min, estimated dead time 0.62 min; A: water + 0.1% formic acid, pH 3; B: acetonitrile + 0.1% formic acid, pH 3; gradient (min/%B) 0/5 12/95 14/95 16/5
[14] = RP, Agilent ZORBAX Eclipse XDB-C18, 100 × 2.1 mm, 1.8 µm, 50 °C, 0.4 mL/min, estimated dead time 0.55 min; A: water + 0.1% formic acid, pH 3; B: methanol + 0.1% formic acid, pH 3; gradient (min/%B) 0/2 10/100 14.5/100 14.51/2 16.5/2
[15] = RP, Phenomenex Luna C18, 150 × 4.6 mm, 3 µm, 25 °C, 0.5 mL/min, estimated dead time 3.2 min; A: water + 0.1% formic acid, pH 3; B: acetonitrile + 0.1% formic acid, pH 3; gradient (min/%B) 0/0 30/30 35/40 50/80 52/80 60/0 65/0
[16] = RP, Agilent InfinityLab Poroshell 120 EC-C18, 100 × 3 mm, 2.7 µm, 25 °C, 0.4 mL/min, estimated dead time 1.1 min; A: water + 0.1% formic acid, pH 3; B: acetonitrile + 0.1% formic acid, pH 3; gradient (min/%B) 0/5 10/25 20/40 24/90 25/90 26/5 30/5

COc1cc(C(=O)O)ccc1O [vanillic acid]
LC retention time [1]: 9.27 min

O=Cc1ccc(CO)o1 [5-Hydroxymethylfurfural]
LC retention time [2]: 24.2 min

C[n+]1cccc(C(=O)[O-])c1 [trigonelline]
LC retention time [1]: 0.731 min

Cn1cnc2c1c(=O)[nH]c(=O)n2C [theobromine]
LC retention time [1]: 4.64 min

C[N+]1(C)CCCC1C(=O)[O-] (configuration not stated) [Stachydrine]
LC retention time [3]: 0.61 min
LC retention time [4]: 1.03 min
LC retention time [5]: 0.65 min
LC retention time [6]: 0.545 min
LC retention time [7]: 1.06 min

OC1C(O)C(O)C(O)C(O)C1O (configuration not stated) [myo-inositol]
LC retention time [1]: 8.53 min

CCC(CCC(C)C1CCC2C3CC=C4CC(O)CCC4(C)C3CCC12C)C(C)C (stereo not drawn) [beta-sitosterol]
LC retention time [3]: 3.92 min

CC1OC(OCC2OC(Oc3cc4c(O)cc(O)cc4[o+]c3-c3ccc(O)c(O)c3)C(O)C(O)C2O)C(O)C(O)C1O (configuration not stated) [Cyanidin-3-O-rutinoside]
LC retention time [7]: 6.43 min
LC retention time [2]: 49.6 min

COc1cc(-c2oc3cc(O)cc(O)c3c(=O)c2OC2OC(CO)C(O)C(O)C2O)ccc1O (configuration not stated) [Isorhamnetin-3-O-glucoside]
LC retention time [8]: 7.94 min
LC retention time [9]: 38.7 min
LC retention time [2]: 78.5 min

O=c1oc2cc(O)ccc2c2ccccc12 [urolithin B]
LC retention time [1]: 28.6 min

C[N+]1(C)CCCC1C(=O)[O-] (configuration not stated) [stachydrine (proline betaine)]
LC retention time [1]: 0.844 min

O=C(O)CC(O)C(=O)O (configuration not stated) [malic acid]
LC retention time [9]: 3.87 min
LC retention time [2]: 8.06 min

COc1cc(C=CC(=O)O)cc(OC)c1OC [o-Methylsinapic acid]
LC retention time [10]: 7.02 min
LC retention time [7]: 15.8 min
LC retention time [11]: 7.28 min
LC retention time [2]: 90.1 min

O=S(=O)(O)Oc1c(O)cccc1O [Pyrogallol-2-O-sulfate]
LC retention time [1]: 3.77 min

OCCc1ccc(O)cc1 [Tyrosol]
LC retention time [2]: 38.7 min

Cc1c(C)c2c(c(C)c1O)CCC(C)(CCCC(C)CCCC(C)CCCC(C)C)O2 (stereo not drawn) [alpha-tocopherol]
LC retention time [3]: 4.03 min
LC retention time [12]: 5.55 min
LC retention time [13]: 13.2 min
LC retention time [4]: 15.6 min
LC retention time [5]: 18.1 min
LC retention time [14]: 12.5 min

OC1C(O)C(O)C(O)C(O)C1O (configuration not stated) [Myo-inositol]
LC retention time [3]: 0.54 min
LC retention time [13]: 2.65 min
LC retention time [4]: 0.86 min
LC retention time [5]: 0.58 min
LC retention time [6]: 0.461 min
LC retention time [7]: 1.01 min

COc1ccc(-c2cc(=O)c3c(OC)c(OC)c(OC)c(OC)c3o2)cc1 [Tangeretin]
LC retention time [3]: 3.93 min
LC retention time [13]: 7.8 min
LC retention time [4]: 13.7 min
LC retention time [5]: 16.9 min
LC retention time [7]: 26.7 min
LC retention time [14]: 8.59 min
LC retention time [15]: 49 min
LC retention time [1]: 36.5 min
LC retention time [16]: 22.8 min
